Test results taken from patent US20040213837A1, “Oil-core compositions for the sustained release of hydrophobic drugs” (priority 2002, published 2004).
Values after ≈ are worked out from the molar mass of the structure shown. Structures can show the parent of a compound that is named as a salt. Blank lines part the entries; values can stand above or below the compound they belong to.

Experiments:
[1] = Solubility of bupivacaine free-base in triolein or tricaprylin; type: physicochemical
Procedure: To confirm that the formation of bupivacaine crystals was related to differing solubility of the drug in the oils used, a solubility experiment was performed. Varying amounts of bupivacaine free-base were added to 1.0 g aliquots of either triolein or tricaprylin in small vials with Teflon-lined screw caps. These vials were heated to ˜70° C., shaken vigorously, cooled to room temperature, then 1.0 mL of 10 mM lysine/5% sorbitol was added to each vial. The vials were put in a 4° C. cold room for a month. […] This vial was the only one in which a precipitate disappeared upon warming to room temperature.

[2] = In vivo concentration-time course of paclitaxel after intraperitoneal injection; settings: rat, 16 mg/kg intraperitoneal, OCP or conventional formulation, HPLC
Procedure: “Conventional” formulations of paclitaxel were prepared by adding 6 mg paclitaxel to 1 mL of a mixture (1:1, v/v) of anhydrous alcohol and Cremophor® EL (Sigma Chemical Company, St. Louis, Mo.). […] At the indicated time points, animals were euthanized and blood, peritoneal fluid, liver, and spleen samples were collected, processed and quickly frozen.
Paclitaxel concentrations in plasma, peritoneal fluid, and homogenized tissues were determined by HPLC after liquid-liquid extraction of the samples with diethyl ether followed by solid-phase extraction (Bond Elut; Varian, Harbor City, Calif.). The samples were then suspended in 45:15:40 acetonitrile:methanol:water, and 50 μL was injected onto a Waters Symmetry C18 column (Waters, Taunton, Mass.) with a Hewlett-Packard Model 1100 solvent delivery system (Hewlett-Packard, Wilmington, Del.). The mobile phase was a mixture of acetonitrile, methanol, and 0.2 M ammonium acetate at pH 5 (45:15:40) with a rate of 1 mL/min; detection was at a wavelength of 230 nm. Apparent terminal half-lives (T1/2beta) were estimated from the terminal log-linear decline of the concentration-time profiles.

microtubule bundling = settings: Rowinsky et al., Cancer Research 48: 4093-4100, 1988; cited from earlier work
response to pin pricks = assay: Guinea pig intracutaneous injection, response to pin pricks; type: in vivo, guinea pigs; settings: 1.0 mL intracutaneous, equivalent to 1% bupivacaine HCl monohydrate
Procedure: This is used in an assay of anesthetic effect. Previously shaved guinea pigs (4-5 per group) were marked with a stencil in the form of a circular array, with 17 tick marks at various radii and directions from the center of the array. Animals anesthetized with Halothane were injected intracutaneously with 1.0 mL of either the tricaprylin-core bupivacaine suspension or a solution of 1% bupivacaine HCl monohydrate in 5% sorbitol. The response to pin pricks was tested at various post-injection intervals (30 min, 3, 6, 9, 12, 18, 24, 30 and 36 hours) and the results summarized in FIG. 3. A vocalization or muscle twitch was considered a positive response. The guinea pigs' response to the bupivacaine solution decayed to half of its maximum at about 3.6 hours after injection. An equivalent (on a molar basis) dose of bupivacaine free base tricaprylin-core suspension took about 8½ hours to decay to the same number of negative responses, and took about 11 hours to decay to half of the maximal response for this formulation.

[3] = 4° C. for a month, with 10 mM lysine/5% sorbitol

- bupivacaine content at which no precipitates were seen, in tricaprylin [1, 3]: ≤ 40 mg per g tricaprylin
- bupivacaine content at which no precipitates were seen, in triolein [1, 3]: ≤ 20 mg per g triolein
- bupivacaine content at which precipitates or large masses were seen, in tricaprylin [1, 3]: ≥ 50 mg per g tricaprylin
- bupivacaine content at which precipitates or large masses were seen, in triolein [1, 3]: ≥ 30 mg per g triolein
SMILES: CCCCN1CCCCC1C(=O)Nc1c(C)cccc1C (centres unmarked) [bupivacaine free-base, bupivacaine]
- relative solubility in tricaprylin and triolein [1]: more soluble in tricaprylin than in triolein

- Paclitaxel levels in plasma [2]: below the limit of detection
SMILES: CC(=O)O[C@H]1C(=O)[C@@]2(C)[C@H]([C@H](OC(=O)c3ccccc3)[C@]3(O)C[C@H](OC(=O)[C@H](O)[C@@H](NC(=O)c4ccccc4)c4ccccc4)C(C)=C1C3(C)C)[C@]1(OC(C)=O)CO[C@@H]1C[C@@H]2O [Paclitaxel, paclitaxel]
- minimum inhibitory concentration required to induce microtubule bundling and other cytotoxic effects in vitro (microtubule bundling): 0.085 µg/mL (≈ 0.0995 µM)

SMILES: CCCCN1CCCCC1C(=O)Nc1c(C)cccc1C (centres unmarked) [bupivacaine solution, bupivacaine HCl monohydrate]
- time for response to decay to half of its maximum (response to pin pricks): about 3.6 hours
